# Assay results as given in patent US6958342B2, “Polymorphs of N-methyl-N-(3-{3-[2-thienylcarbonyl]-pyrazol-[1,5-α]-pyrimidin-7-yl}phenyl)acetamide and compositions and methods related thereto” (Neurocrine Biosciences, Inc., priority 1999, dated 2005).
# Assays:
# [1] = Approximate solubility of Form I and Form II in various solvents; type: physicochemical
# Source text: In addition, the lower melting point polymorph, Form II, also has significant advantages over the polymorphic mixture of Compound 1 as prepared according to known techniques. […] Form II is generally more soluble in polar and protic solvents than is Form I. Enhanced solubility of a compound will generally increase the bioavailability of that compound. When absorption of a drug is dissolution rate limited, use of the more soluble and faster dissolving form improves the rate and extent of bioavailability.
# [2] = Physical (polymorphic) stability of the solid form; type: physicochemical; details: stability toward conversion to a different polymorphic form; compared with the polymorphic mixture of Compound 1
# Source text: The polymorph Form I is considered a heat stable form of Compound 1. By “heat stable” or “physically stable” is meant that the Form I is stable toward conversion to the polymorph Form II; although, it may be labile toward degradation to other compounds.
# As the higher melting point polymorph, Form I has significant advantages over the polymorphic mixture of Compound 1 prepared according to known techniques. […] This, in turn, enhances the milling and compaction properties of the drug substance.
Substance,Solubility ([1]; Acetone),Solubility ([1]; Acetonitrile),Solubility ([1]; De-ionized water),Solubility ([1]; Diethyl ether),"Solubility ([1]; Ethanol, absolute (100%))",Solubility ([1]; Ethyl acetate),Solubility ([1]; Hexane),Solubility ([1]; Isopropanol),Solubility ([1]; Methanol),"Solubility ([1]; Polyethylene Glycol 400, NF)",Solubility ([1]; Tetrahydrofuran),Solubility ([1]; Toluene),"Water solubility, in words ([1]; compared with Form I)","Physical stability, in words [2]"
"N-methyl-N-(3-{3-[2-thienylcarbonyl]-pyrazol-[1,5-α]-pyrimidin-7-yl}phenyl)acetamide [Form II]",6873 µg/mL,8928 µg/mL,18.8 µg/mL,51 µg/mL,1722 µg/mL,2160 µg/mL,50 µg/mL,457 µg/mL,1915 µg/mL,10100 µg/mL,14740 µg/mL,645 µg/mL,superior water solubility over Form I,
"N-methyl-N-(3-{3-[2-thienylcarbonyl]-pyrazol-[1,5-α]-pyrimidin-7-yl}phenyl)acetamide [Form I]",4842 µg/mL,6246 µg/mL,8.3 µg/mL,80 µg/mL,1426 µg/mL,1600 µg/mL,41 µg/mL,441 µg/mL,1740 µg/mL,3259 µg/mL,9964 µg/mL,997 µg/mL,,superior physical stability
